The values below come from US20110251220A1, “Pharmaceutical compositions comprising gamma secretase modulators” (priority 2008, published 2011).

The experiment relates to U266 cells. Description: Proliferation assay (CellTiter-Glo), U266 (Notch1 negative control). The class given is cell-based, human. As to conditions: U266 (lacking Notch1), 48 h treatment. The protocol: Human MM cell lines used were as follows: NCI-H929, OPM-2, LP-1, RPMI-8226, U266 (DSMZ, Braunschweig, Germany). Cell lines were cultured in RPMI 1640 medium (Biochrom, Berlin, Germany) supplemented with 10% heat-inactivated fetal calf serum (FCS, Gibco, Karlsruhe, Germany), 1 mM sodium pyruvate and 100 units/ml penicillin and 100 μg/ml streptomycin (Gibco). Human osteoclasts were obtained as described in the reference of Zavrski I, Krebbel H, Wildemann B, et al. Proteasome inhibitors abrogate osteoclast differentiation and osteoclast function. Biochem Biophys Res Commun. 2005; 333:200-205. Briefly, peripheral blood mononuclear cells (PBMC) were isolated from whole blood of healthy volunteers, using a Ficoll-Hypaque density gradient. The adherent fraction of the isolated mononuclear cells was cultured for 21 days in MEM medium (Sigma-Aldrich Chemie, Taufkirchen, Germany) supplemented with 10% FCS, 100 U/ml penicillin, 100 μg/ml streptomycin, 50 ng/ml M-CSF, and 25 ng/ml RANKL (osteoclastogenic medium), before coculture experiments and treatment with the inventive compounds started. […]
For assaying proliferation/viability of cells CellTiter-Glo Luminescent Cell Viability Assay (Promega, Mannheim, Germany) was used. In this assay the number of viable cells at a given time point is determined by quantification of ATP present, which serves as a measure of metabolically active cells. […]
In general terms: In ATP-based viability assays light output follows the ATP content of the culture.

Consider `CC(C)c1ccc(S(=O)(=O)Nc2cccnc2Oc2ccc(Cl)cc2)cc1` [Example 1, N-(2-(4-chlorophenoxy)pyridin-3-yl)-4-isopropylbenzenesulfonamide], for which the proliferation result is given as “almost not affected”.
